According to patent publication US20200124600A1, “METHODS OF TREATING AUTOIMMUNE AND INFLAMMATORY DISEASES” (Genentech, Inc., priority 2017, published 2020):

Columns and labels:
[1] = system: human memory B cells; assay: CpG-mediated plasmablast differentiation of memory B cells, flow cytometry; assay type: cell-based; settings: B-cell, memory B cells from healthy donors, ODN2006 5 ug/ml plus cytokines, n=3, read-out: IC50 potency, inhibition of CpG-mediated plasmablast differentiation
Description: (§1) Plasmablast Differentiation: Memory B cells were isolated from Healthy donor PBMC (Miltenyi Memory B cell isolation kit). For the Plasmablast differentiation, 1.5×10^5/ml memory B cells were then cultured in the presence of a cocktail of cytokines, IL-2(20 U/ml), IL-10 (50 ng/ml), IL-15(10 ng/ml), IL-6 (50 ng/ml), IFNa (10 ng/ml) and stimulated with either ODN2006 (TLR-9 ligand) 5 ug/ml, or CD40L (3 ug/ml) for 5 days. The plasmablast differentiation was carried out in the presence of vehicle alone (DMSO) and GDC-0852 at various concentrations, using a 3 fold dose titration of inhibitor starting at 10 uM. Flow cytometry was performed to enumerate ([…]) plasmablast percentages and assess the inhibition by GDC-0852.
(§2) Statistical analyses were performed using either <> or custom scripts written in the R programming language. […] IC50 values for BTK inhibition was calculated using the GraphPad Prism software. […]
(§3) Results: The differentiation of B cells into plasmablast can occur through multiple activation stimuli and involves distinct molecular changes. […] We evaluated the effect of the BTK inhibitor GDC-0852 in the plasmablast differentiation process, either by a T cell-mediated response using CD40L stimulation or a T cell-independent response using the Toll-like receptor ligand, CpG.

[2] = system: plasmablast signature genes IgJ, MZB1, TXNDC5; assay: Plasmablast signature gene expression in differentiated memory B cells, Fluidigm quantitative RT-PCR; assay type: cell-based, human; settings: 370 nM vs DMSO, 5 days, n=4 donors
Description: FIGS. 8A, 8B, 8C and 8D. BTK inhibition reduces the plasmablast gene signature. Memory B cells from 4 healthy donors were differentiated into plasmablasts using conditions described above, in the presence of DMSO vehicle or 370 nM GDC-0852. Expression of plasmablast signature genes was measured by Fluidigm, and normalized to a housekeeping gene (HPRT1). Expression values are plotted as the relative transcript abundance to the housekeeping gene. The plasmablast signature was calculated as the geometric mean of the relative abundances of the three individual genes.
as §1
RNA Preparation: RNA was extracted from the cells in culture at 5 days from the DMSO and GDC-0852 (370 nM) treated cells (n=4). Cells were disrupting in RLT buffer using the Qiashredder (Qiagen, Valencia, Calif.) and then RNA was extracted using the RNeasy mini kit (Qiagen) including the on-column DNase digestion. The concentration of total RNA and integrity of RNA samples was determined using the NanoDrop 8000 (Thermo Scientific). The isolated RNA was used for the Fluidigm quantitative RT-PCR analyses.
QT PCR: cDNA synthesis was performed on 100 ng total-RNA using an iScript cDNA synthesis kit (Biorad, Hercules, Calif.). Gene-specific pre-amplification was performed (Applied Biosystems) for 3 genes (IgJ, MZB1, TXNDC5 including housekeeping genes TMEM55B. RT-PCR was performed using the BioMark 48.48 Dynamic Arrays (Fluidigm Corporation) using the manufacturer's protocol. Data were collected using the BioMark Data Collection Software and CT values were obtained using the BioMark RT-PCR Analysis Software (V.2.1.1, Fluidigm). The relative abundance (dCt) to HPRT1 was calculated: 2 log−(average Ct gene−average Ct HPRT1). For statistical analyses, values below the lower limit of detection were set to be 1 Ct lower than the lowest recorded value.
as §2

[3] = system: human memory B cells; assay: CD40L induced plasmablast differentiation of memory B cells, flow cytometry; assay type: cell-based
Text: It was confirmed that plasmablast differentiation was regulated by Bruton's Tyrosine Kinase (BTK) activity by performing an in vitro plasmablasts differentiation assay where human memory B cells were put into differentiating conditions, and were subsequently measured after 5 days using flow cytometry quantification for CD20^loCD38^++ plasmablasts. […] GDC-0852 is (S)-2-(5-Fluoro-2-(hydroxymethyl)-3-(1-methyl-5-(5-(2-methyl-4-(oxetan-3-y-1)piperazin-1-yl)pyridin-2-ylamino)-6-oxo-1,6-dihydropyridin-3-yl)-phenyl)-3,4,6,7,8,9-hexahydropyrido[3,4-b]indolizin-1(2H)-one, the structure of which is shown below:
Plasmablast Differentiation: Memory B cells were isolated from Healthy donor PBMC (Miltenyi Memory B cell isolation kit). […]
as §2, §3

[4] = system: plasmablast signature; assay: Plasmablast signature in blood of extra-renal lupus patients, EXPLORER clinical trial; assay type: in vivo, human; settings: for expression of the plasmablast signature compared to patients treated with azathioprine: screening samples
Description: (§4) Blood Sample Analysis: 3-gene plasmablast signature expression assay. Blood was collected in PAXgene RNA tubes (PreAnalytiX); total RNA was extracted using commercially available kits according to manufacturer instructions (Qiagen).
(§5) Alternatively, expression of candidate biomarker genes in blood samples was quantified by Fluidigm qPCR assays. 3-gene score was calculated from the mean of IgJ, TXNDC5 and MZB1, and normalized using reference gene TMEM55B. Blood samples were assessed using this assay developed on the Cobas 4800 platform (Roche Molecular Systems).
(§6) Plasmablast signature values were collected from two cohorts of moderate to severe lupus patients from phase II clinical trials assessing the safety and efficacy of rituximab in SLE. The cohorts were patients with either lupus nephritis (LUNAR) or extra-renal lupus (EXPLORER). Mixed effects modeling of plasmablast signature values over the course of treatment, incorporating covariates for age, race, concomitant medications, interferon activity, SLEDAI, visit, treatment arm and their interaction, with patient modeled as a random effect, identified a profound decrease in plasmablast signature specifically within the rituximab treated patients (FIG. 4A, 4B). This effect was most apparent in the time points two weeks after receiving rituximab infusion, with diminishing effect over time.
In the EXPLORER trial, patients were monitored for presence of antibodies directed against mouse-human chimeric antibodies (HACA). […] Using the same linear mixed effects model, as above, a 2.8-fold higher expression of plasmablast marker genes was found in patients that went on to develop HACA (p=0.0007).
Previous studies identified an association between different immunosuppressive treatments and reduced expression of plasmablast-associated genes.

[5] = system: plasmablast signature; assay: Plasmablast signature in blood of lupus nephritis patients, LUNAR clinical trial; assay type: in vivo, human
Description: as §4, §5
as §6, with “time. […]” for “time.”

**Q.** For `C[C@H]1CN(C2COC2)CCN1c1ccc(Nc2cc(-c3cc(F)cc(N4CCc5c(cc6n5CCCC6)C4=O)c3CO)cn(C)c2=O)nc1` [GDC-0852, (S)-2-(5-Fluoro-2-(hydroxymethyl)-3-(1-methyl-5-(5-(2-methyl-4-(oxetan-3-y-1)piperazin-1-yl)pyridin-2-ylamino)-6-oxo-1,6-dihydropyridin-3-yl)-phenyl)-3,4,6,7,8,9-hexahydropyrido[3,4-b]indolizin-1(2H)-one], which IC50 [1] is on record?
**A.** 48 nM

**Q.** And the “expression of plasmablast signature gene MZB1” value ([2]; p=0.0023)?
**A.** significant decrease

**Q.** And the “composite plasmablast 3 gene signature” value ([2]; p=0.0026)?
**A.** significant decrease

**Q.** What about the “expression of plasmablast signature gene TXNDC5” value ([2]; p=0.0032) of the same compound?
**A.** significant decrease

**Q.** What about the “expression of plasmablast signature gene IgJ” value ([2]; p=0.011) of the same compound?
**A.** significant decrease

**Q.** What about the IC50 ([3]; Homo sapiens, B-cell, 120 h, memory B cells from healthy donors, CD40L 3 ug/ml plus cytokines, day 5, FACS, read-out: IC50 potency, inhibition of CD40L induced plasmablast differentiation) of the same compound?
**A.** 20 nM

**Q.** And the “inhibition of CD40L induced plasmablast differentiation” value ([3]; human memory B cells, measured after 5 days, CD20loCD38++ plasmablasts by flow cytometry)?
**A.** inhibited CD40L induced plasmablast differentiation in a dose-dependent manner

**Q.** What does the source list for rituximab?
**A.** change in plasmablast signature after treatment in patients that went on to develop anti-drug antibodies (HACA) ([4]; HACA-positive patients): limited to no decrease; maximum decrease in plasmablast signature ([4]; week 28, two weeks following the fourth infusion, p=2×10^−11): 3.48 fold; reduction of plasmablast signature expression ([5]; week 28 time point, p=0.0011): 3.31 fold

**Q.** How did the “expression of the plasmablast signature compared to patients treated with azathioprine” value [4] turn out when `CN(Cc1cnc2nc(N)nc(N)c2n1)c1ccc(C(=O)N[C@@H](CCC(=O)O)C(=O)O)cc1` [methotrexate] was run?
**A.** much lower expression

**Q.** Which results are given for `COc1c(C)c2c(c(O)c1C/C=C(\C)CCC(=O)OCCN1CCOCC1)C(=O)OC2` [mycophenolate, mycophenolate mofetil]?
**A.** expression of the plasmablast signature compared to patients treated with azathioprine [4]: much lower expression; expression of plasmablast signature genes in patients on treatment at baseline ([5]; baseline, relatively few patients in the MMF pool): trend toward lower expression
